Experimental data reported in patent US20260263554A1, “COMPOSITION COMPRISING CPNE7 PROTEIN OR CPNE7 PROTEIN-DERIVED PEPTIDE FOR REMOVING REACTIVE OXYGEN SPECIES IN CELLS” (HYSENSBIO CO., LTD, priority 2022, published 2026).

Legend:
CCD986SK cells [1] = experiment: B-gal staining, cell aging in dermal fibroblasts; type: cell-based; conditions: 1 mM H2O2, Selcopintide 1, 10, 100 and 500 μg/mL, 24 hours, compared to H2O2-only-treated group
Procedure: Cultured CCD986SK cells were seeded into 6-well plates at a density of 1×10^5 cells, cultured for 24 hours, and then treated with 1 mM H2O2 and treated with 1 μg/mL, 10 μg/mL, 100 μg/mL, and 500 μg/mL of Selcopintide. After 24 hours, the cells were fixed with 4% paraformaldehyde.
B-gal staining was performed on the fixed cells for 24 hours to compare the degrees of cell aging. 24 hours after treatment with 1 mM H2O2, a large number of B-gal positive CCD986SK cells were identified.

hDPC cells = experiment: Amount of living cells by WST-8; type: cell-based, human; conditions: hDPCs, 1 mM H2O2, 1 μg/mL and 10 μg/mL Selcopintide, 24 hours; compared to H2O2-only-treated group
Procedure: (§1) Cultured hDPC cells were seeded into 96-well plates at a density of 3×10^3 cells per well, cultured for 24 hours, and then treated with 1 mM hydrogen peroxide (H2O2) and treated with Selcopintide at concentrations of 1 μg/mL, 10 μg/mL, 100 μg/mL, and 500 μg/mL for 24 hours. Untreated hDPCs were used as the control.
(§2) The WST-8 solution was added to each well and allowed to react for 1 hour, and then absorbance was measured at 450 nm using a microplate reader and compared.

[2] = test system: endogenous antioxidant enzymes in hDPC cells; experiment: mRNA levels of endogenous antioxidant enzymes by RT-PCR; type: cell-based, human; conditions: hDPCs, 1 mM H2O2, CPNE7 recombinant protein 100 ng/mL or Selcopintide 10 ug/mL
Procedure: Cultured hDPCs were seeded into 60 mm culture dishes at a density of 4×10^5 cells, cultured for 24 hours, and then treated with 1 mM H2O2 and treated with the CPNE7 recombinant protein (100 ng/mL) and Selcopintide (10 ug/mL). After 30 minutes and one hour, the mRNA levels of Sod1, 2, and 3, catalase, Gpx7, Hmox1, and Txmd1 were checked.

[3] = test system: Human dental pulp cells (hDPCs); experiment: Optical microscope observation of hDPCs after H2O2 and test substance; type: cell-based; conditions: 24 hours
Procedure: Human dental pulp cells (hDPCs) were cultured in an α-MEM medium containing 10% FBS under 37° C. and 5% CO2 conditions.
hDPCs were seeded into 35 mm culture dishes at a density of 1×10^5 cells, cultured for 24 hours, treated with H2O2 at a concentration of 5 uM, 100 uM, 1 mM, or 2 mM, respectively, and then treated with 100 ng/ml of a recombinant CPNE7 protein and cultured for 24 hours. After the culture was completed, the cultured cells were washed with PBS, and observed using an optical microscope. At this time, the hDPCs cultured without treating the recombinant CPNE7 protein (rCPNE7) were used as the control.
as §1, with “6-well” for “96-well”, “1×10^5” for “3×10^3”

hDPCs [4] = experiment: Reactive oxygen species level with DCFDA, confocal microscope; type: cell-based, human; conditions: 1 mM H2O2, 10 μg/mL Selcopintide, imaged for approximately one hour
Procedure: Cultured hDPCs were seeded into 35 mm culture dishes for a confocal microscope at a density of 1×10^5 cells, cultured for 24 hours, and then treated with 1 mM H2O2 and treated with 100 ng/mL of rCPNE7. Then, images were taken for approximately one hour using a confocal microscope.
Cultured hDPCs were seeded into 35 mm culture dishes for a confocal microscope at a density of 1×10^5 cells, cultured for 24 hours, and then treated with 1 mM H2O2 and treated with 10 μg/mL of Selcopintide. Thereafter, images were taken for approximately one hour using a confocal microscope.

H9C2 cells [5] = experiment: B-gal staining, cell aging in cardiomyocytes; type: cell-based; conditions: H9C2, 1 mM H2O2, Selcopintide 1, 10, 100 and 500 μg/mL, 24 hours; compared to H2O2-only-treated group
Procedure: Cultured H9C2 was seeded into 6-well plates at a density of 1×10^5 cells, cultured for 24 hours, and then treated with 1 mM H2O2 and treated with 1 μg/mL, 10 μg/mL, 100 μg/mL, and 500 μg/mL of Selcopintide. After 24 hours, the cells were fixed with 4% paraformaldehyde.
Next, B-gal staining was performed on the fixed cells for 24 hours to compare the degree of cell aging. 24 hours after treatment with 1 mM H2O2, a large number of B-gal positive H9C2 cells were identified.

[6] = test system: cardiomyocytes (H9C2 cell line); experiment: Optical microscope observation of cardiomyocytes after H2O2 and Selcopintide; type: cell-based; conditions: H9C2, 1 mM H2O2, Selcopintide 1, 10, 100 and 500 μg/mL, 24 hours; compared to H2O2-only-treated group
Procedure: as §1, with “H9C2” for “hDPC”, “6-well” for “96-well”, “1×10^5” for “3×10^3”, “H9C2 cells” for “hDPCs”

hDPCs [7] = experiment: Immunofluorescence staining with γ-H2A.X (DNA damage marker); type: cell-based, human; conditions: 1 mM H2O2, 10 μg/mL Selcopintide, 24 hours, vs 1 mM H2O2 group
Procedure: Cultured hDPCs were seeded into 35 mm culture dishes for a confocal microscope at a density of 1×10^5 cells, cultured for 24 hours, and then treated with 1 mM H2O2 and treated with 100 ng/mL of rCPNE7. After 24 hours, the cells were fixed with 4% paraformaldehyde.
Immunofluorescence staining using a γ-H2A.X antibody was performed on the fixed cells to compare intensity.
Cultured hDPCs were seeded into 35 mm culture dishes for a confocal microscope at a density of 1×10^5 cells, cultured for 24 hours, and then treated with 1 mM H2O2 and treated with 10 μg/mL of Selcopintide. After 24 hours, the cells were fixed with 4% paraformaldehyde.

H9C2 cells [8] = experiment: Amount of living cells by WST-8 in cardiomyocytes; type: cell-based; conditions: H9C2, 1 mM H2O2, 1, 10, 100 and 500 μg/mL Selcopintide, 24 hours; compared to H2O2-only-treated group
Procedure: as §1, with “H9C2” for “hDPC”, “H9C2 cells” for “hDPCs”
as §2

CCD986SK cells [9] = experiment: Amount of living cells by WST-8 in dermal fibroblasts; type: cell-based; conditions: 1 mM H2O2, 1, 10, 100 and 500 μg/mL Selcopintide, 24 hours, compared to H2O2-only-treated group
Procedure: as §1, with “CCD986SK” for “hDPC”, “CCD986SK cells” for “hDPCs”
The WST-8 solution was added to each well and allowed to react for one hour, and then absorbance was measured at 450 nm using a microplate reader and compared.

[10] = test system: dermal fibroblast (CCD986SK) cells; experiment: Optical microscope observation of dermal fibroblasts after H2O2 and Selcopintide; type: cell-based; conditions: 24 hours
Procedure: as §1, with “CCD986SK” for “hDPC”, “6-well” for “96-well”, “1×10^5” for “3×10^3”, “CCD986SK cells” for “hDPCs”

[11] = 1 mM H2O2, Selcopintide 1, 10, 100 and 500 μg/mL, compared to H2O2-only-treated group

Q: How did the “number of B-gal positive CCD986SK cells” value (CCD986SK cells [1]) turn out when “KYKQKRRSYK (Novel peptide) [Selcopintide]” was run?
A: significantly reduced

Q: And the “cell viability (WST-8, absorbance 450 nm)” value (hDPC cells)?
A: significantly higher

Q: What about the “mRNA of endogenous antioxidant enzymes Sod1, 2, and catalase” value ([2]; after 30 minutes, compared to H2O2-only-treated group) of the same sequence?
A: significantly increased

Q: What about the “mRNA of Sod1 and Gpx7, and Hmox1 and Txrnd1” value ([2]; after one hour) of the same sequence?
A: significantly increased

Q: And the “cell viability (optical microscope)” value ([3]; 1 mM H2O2, 1 μg/mL and 10 μg/mL treatment groups)?
A: high

Q: What about the “cell viability (optical microscope)” value [3, 11] of the same sequence?
A: higher

Q: And the “amount of reactive oxygen species (DCFDA)” value (hDPCs [4])?
A: decreased and became significant at approximately one hour

Q: And the “number of B-gal positive H9C2 cells” value (H9C2 cells [5])?
A: significantly reduced

Q: And the “cell viability (optical microscope)” value [6]?
A: higher

Q: And the “accumulation of DNA damage (γ-H2A.X intensity)” value (hDPCs [7])?
A: significantly reduced

Q: And the “cell viability (WST-8, absorbance 450 nm)” value (H9C2 cells [8])?
A: significantly higher

Q: And the “cell viability (WST-8, absorbance 450 nm)” value (CCD986SK cells [9])?
A: significantly higher

Q: What about the “significance of higher cell viability (optical microscope)” value ([10]; 1 mM H2O2, 1 μg/mL and 10 μg/mL of Selcopintide) of the same sequence?
A: highest

Q: What about the “cell viability (optical microscope)” value [10, 11] of the same sequence?
A: higher
